In brackets after ≈: the same amount, converted by molar mass.
Legend:
[1] = Aqueous solubility (pH 7, phosphate buffer); type: physicochemical
[2] = system: Staphylococcus aureus UC9213 or Streptococcus species; test: Antimicrobial activity in vivo, Murine Assay (mice infected intraperitoneally with bacteria; ED50 from survival over six days); conditions: 144 h, female mice, treatment one hour and five hours after infection
Protocol: Antimicrobial activity was tested in vivo using the Murine Assay procedure. Groups of female mice (six mice of 18-20 grams each) were injected intraperitoneally with bacteria which were thawed just prior to use and suspended in brain heart infusion with 4% brewers yeast UC9213 (Staphylococcus aureus) or brain heart infusion (Streptococcus species). Antibiotic treatment at six dose levels per drug was administered one hour and five hours after infection by either oral intubation or subcutaneous ("subcut.") routes. Survival was observed daily for six days. ED50 values based on mortality ratios were calculated using probit analysis. The subject compounds were compared against a well-known antimicobial (Vancomycin) as a control.

solubility [1] [mg/mL]	SMILES	ED50 ([2]; oral) [mg/kg]	ED50 ([2]; sc, subcut.) [mg/kg]
36 (≈ 67.2 mM)	CC(=O)NC[C@H]1CN(c2ccc(N3CCN(C(=O)COC(=O)CCN4CCOCC4)CC3)c(F)c2)C(=O)O1 [Example 1, 3-(4-Morpholinyl)propionic acid, 2-(4-(4-(5-((acetylamino)methyl)-2-oxo-3-oxazolidinyl)-2-fluorophenyl)-1-piperazinyl)-2-oxoethyl ester, (S)]	5	4
55.3 (≈ 106 mM)	CC(=O)NC[C@H]1CN(c2ccc(N3CCN(C(=O)COC(=O)CN4CCOCC4)CC3)c(F)c2)C(=O)O1 [Example 27, (4-morpholinyl)acetic acid, 2-(4-(4-(5-((acetylamino)methyl)-2-oxo-3-oxazolidinyl)-2-fluorophenyl)-1-piperazinyl)-2-oxoethyl ester, (S)]	6	
1.4 (≈ 2.87 mM)	CC(=O)NC[C@H]1CN(c2ccc(N3CCN(C(=O)COC(=O)n4ccnc4)CC3)c(F)c2)C(=O)O1 [Example 4, 1H-imidazole-1-carboxylic acid, 2-[4-[4-[5-[(acetylamino)methyl]-2-oxo-3-oxazolidinyl]-2-fluorophenyl]-1-piperazinyl]-2-oxoethyl ester, (S)-]	2	2
79.1 (≈ 148 mM)	CC(=O)NC[C@H]1CN(c2ccc(N3CCN(C(=O)COC(=O)CN4CCN(C)CC4)CC3)c(F)c2)C(=O)O1 [Example 13, (4-Methyl-1-piperazinyl)acetic acid, 2-[4-[4-[5-[(acetylamino)methyl]-2-oxo-3-oxazolidinyl]-2-fluorophenyl]-1-piperazinyl]-2-oxoethyl ester, (S)-]	> 20	> 20
